In US8293909B2, “Compounds for the treatment of hepatitis C” (Bristol-Myers Squibb Company, priority 2008, dated 2012):

Columns and labels:
[1] = molecular target: T1, HCV NS5B RdRp genotype 1b (Hepatitis C virus genotype 1b, UniProt Q9WMX2); assay: HCV NS5B RdRp enzyme assay (standard / modified); type: biochemical; settings: HCV NS5B genotype 1b
T1 construct: The protein was expressed with an 18 amino acid C-terminal truncation to enhance the solubility; made in house; host or cells: E. coli BL21(DE3), pET21a vector
Description: HCV NS5B RdRp cloning, expression, and purification. The cDNA encoding the NS5B protein of HCV, genotype 1b, was cloned into the pET21a expression vector. The protein was expressed with an 18 amino acid C-terminal truncation to enhance the solubility. The E. coli competent cell line BL21(DE3) was used for expression of the protein. Cultures were grown at 37° C. for ˜4 hours until the cultures reached an optical density of 2.0 at 600 nm. The cultures were cooled to 20° C. and induced with 1 mM IPTG. Fresh ampicillin was added to a final concentration of 50 μg/ml and the cells were grown overnight at 20° C.
Cell pellets (3 L) were lysed for purification to yield 15-24 mgs of purified NS5B. The lysis buffer consisted of 20 mM Tris-HCl, pH 7.4, 500 mM NaCl, 0.5% triton X-100, 1 mM DTT, 1 mM EDTA, 20% glycerol, 0.5 mg/ml lysozyme, 10 mM MgCl2, 15 ug/ml deoxyribonuclease I, and Complete™ protease inhibitor tablets (Roche). After addition of the lysis buffer, frozen cell pellets were resuspended using a tissue homogenizer. To reduce the viscosity of the sample, aliquots of the lysate were sonicated on ice using a microtip attached to a Branson sonicator. The sonicated lysate was centrifuged at 100,000×g for 1 hr at 4° C. and filtered through a 0.2 μm filter unit (Corning).
The protein was purified using three sequential chromatography steps: Heparin sepharose CL-6B, polyU sepharose 4B, and Hitrap SP sepharose (Pharmacia). The chromatography buffers were identical to the lysis buffer but contained no lysozyme, deoxyribonuclease I, MgCl2 or protease inhibitor and the NaCl concentration of the buffer was adjusted according to the requirements for charging the protein onto the column. Each column was eluted with a NaCl gradient which varied in length from 5-50 column volumes depending on the column type. After the final chromatography step, the resulting purity of the enzyme is >90% based on SDS-PAGE analysis. The enzyme was aliquoted and stored at −80° C.
Standard HCV NS5B RdRp enzyme assay. HCV RdRp genotype 1b assays were run in a final volume of 60 μl in 96 well plates (Costar 3912). The assay buffer is composed of 20 mM Hepes, pH 7.5, 2.5 mM KCl, 2.5 mM MgCl2, 1 mM DTT, 1.6 U RNAse inhibitor (Promega N2515), 0.1 mg/ml BSA (Promega R3961), and 2% glycerol. All compounds were serially diluted (3-fold) in DMSO and diluted further in water such that the final concentration of DMSO in the assay was 2%. HCV RdRp genotype 1b enzyme was used at a final concentration of 28 nM. A polyA template was used at 6 nM, and a biotinylated oligo-dT12 primer was used at 180 nM final concentration. Template was obtained commercially (Amersham 27-4110). Biotinylated primer was prepared by Sigma Genosys. 3H-UTP was used at 0.6 μCi (0.29 μM total UTP). Reactions were initiated by the addition of enzyme, incubated at 30° C. for 60 min, and stopped by adding 25 μl of 50 mM EDTA containing SPA beads (4 μg/μl, Amersham RPNQ 0007). Plates were read on a Packard Top Count NXT after >1 hr incubation at room temperature.
Modified HCV NS5B RdRp enzyme assay. A modified enzyme assay was performed essentially as described for the standard enzyme assay except for the following: The biotinylated oligo dT12 primer was precaptured on streptavidin-coated SPA beads by mixing primer and beads in assay buffer and incubating at room temperature for one hour. Unbound primer was removed after centrifugation. The primer-bound beads were resuspended in 20 mM Hepes buffer, pH 7.5 and used in the assay at final concentrations of 20 nM primer and 0.67 μg/μl beads. Order of addition in the assay: enzyme (14 nM) was added to diluted compound followed by the addition of a mixture of template (0.2 nM), 3H-UTP (0.6 μCi, 0.29 μM), and primer-bound beads, to initiate the reaction; concentrations given are final. Reactions were allowed to proceed for 4 hours at 30° C.
IC50 values for compounds were determined using seven different [I]. […]

HCV replicon cells = assay: HCV replicon assay (FRET or luciferase readout); type: cell-based; settings: Hepatitis C virus
Text: FRET Assay Preparation. To perform the HCV FRET screening assay, 96-well cell culture plates were used. The FRET peptide (Anaspec, Inc.) (Taliani et al., Anal. Biochem. 1996, 240, 60-67) contains a fluorescence donor, EDANS, near one end of the peptide and an acceptor, DABCYL, near the other end. The fluorescence of the peptide is quenched by […] resonance energy transfer (RET) between the donor and the acceptor, but as the NS3 protease cleaves the peptide the products are released from RET quenching and the fluorescence of the donor becomes apparent. The assay reagent was made as follows: 5× cell Luciferase cell culture lysis reagent from Promega (#E153A) diluted to 1× with dH2O, NaCl added to 150 mM final, the FRET peptide diluted to 20 μM final from a 2 mM stock.
To prepare plates, HCV replicon cells, with or without a Renilla luciferase reporter gene, were trypsinized and placed into each well of a 96-well plate with titrated test compounds added in columns 3 through 12; columns 1 and 2 contained a control compound (HCV protease inhibitor), and the bottom row contained cells without compound. The plates were then placed in a CO2 incubator at 37° C.
Assays. Subsequent to addition of the test compounds described above (FRET Assay Preparation), at various times the plate was removed and Alamar blue solution (Trek Diagnostics, #00-100) was added per well as a measure of cellular toxicity. After reading in a Cytoflour 4000 instrument (PE Biosystems), plates were rinsed with PBS and then used for FRET assay by the addition of 30 ul of the FRET peptide assay reagent described above (FRET Assay Preparation) per well. The plate was then placed into the Cytoflour 4000 instrument which had been set to 340 excite/490 emission, automatic mode for 20 cycles and the plate read in a kinetic mode. Typically, the signal to noise using an endpoint analysis after the reads was at least three-fold. Alternatively, after Alamar blue reading, plates were rinsed with PBS, 50 ul of DMEM (high glucose) without phenol red was added and plates were then used for luciferase assay using the Promega Dual-Glo Luciferase Assay System.
Compound analysis was determined by quantification of the relative HCV replicon inhibition and the relative cytotoxicity values. To calculate cytoxicity values, the average Alamar Blue fluorescence signals from the control wells were set as 100% non-toxic. The individual signals in each of the compound test wells were then divided by the average control signal and multiplied by 100% to determine […]. To calculate the HCV replicon inhibition values, an average background value was obtained from the two wells containing the highest amount of HCV protease inhibitor at the end of the assay period. These numbers were similar to those obtained from naïve Huh-7 cells.
The background numbers were then subtracted from the average signal obtained from the control wells and this number was used as 100% activity. The individual signals in each of the compound test wells were then divided by the averaged control values after background subtraction and multiplied by 100% to determine percent activity. EC50 values for a protease inhibitor titration were calculated as the concentration which caused a 50% reduction in FRET or luciferase activity. The two numbers generated for the compound plate, percent cytoxicity and percent activity were used to determine compounds of interest for further analysis.

T1 sequence (Q9WMX2 2420-2992): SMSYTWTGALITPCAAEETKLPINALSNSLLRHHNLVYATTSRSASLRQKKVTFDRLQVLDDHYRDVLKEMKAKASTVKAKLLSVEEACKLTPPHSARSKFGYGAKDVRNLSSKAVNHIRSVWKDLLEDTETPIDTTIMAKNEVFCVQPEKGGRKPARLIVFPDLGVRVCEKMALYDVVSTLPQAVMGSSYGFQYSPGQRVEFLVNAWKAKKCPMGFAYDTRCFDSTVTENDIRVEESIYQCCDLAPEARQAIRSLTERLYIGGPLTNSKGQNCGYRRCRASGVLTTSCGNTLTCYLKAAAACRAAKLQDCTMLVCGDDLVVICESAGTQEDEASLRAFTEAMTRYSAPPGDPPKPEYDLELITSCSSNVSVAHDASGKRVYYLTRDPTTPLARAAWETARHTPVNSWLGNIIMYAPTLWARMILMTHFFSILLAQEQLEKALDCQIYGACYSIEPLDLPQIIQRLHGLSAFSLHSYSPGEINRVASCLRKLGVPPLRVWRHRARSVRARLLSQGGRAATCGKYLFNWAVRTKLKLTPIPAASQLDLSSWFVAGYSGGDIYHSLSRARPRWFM

CCN(c1cn2nc(-c3ccc(F)cc3)c(C(=O)NC)c2cc1-c1ccccc1)S(C)(=O)=O
IC50 ([1]; Table 1): 2 to 250 nM | EC50 (HCV replicon cells; Table 1): 250 to 1000 nM

CNC(=O)c1c(-c2ccc(F)cc2)nn2cc(N(CCOC)S(C)(=O)=O)c(-c3cccc(C(=O)NC(C)(C)c4ccccc4)c3)cc12
IC50 ([1]; Table 1): 2 to 250 nM | EC50 (HCV replicon cells; Table 1): 2 to 250 nM

CNC(=O)c1c(-c2ccccc2)nn2cc(I)ccc12
IC50 ([1]; Table 1): > 10000 nM | EC50 (HCV replicon cells; Table 1): > 10000 nM

CNC(=O)c1c(-c2ccc(F)cc2)sc2ccc(-c3cccc(C(=O)NC4(c5ccccc5)CCC4)c3)cc12
IC50 ([1]; Table 1): 2 to 250 nM | EC50 (HCV replicon cells; Table 1): 2 to 250 nM

CNC(=O)c1cccc(-c2ccc3c(C(=O)NC)c(-c4ccccc4)nn3c2)c1
IC50 ([1]; Table 1): > 10000 nM | EC50 (HCV replicon cells; Table 1): > 10000 nM

CNC(=O)c1c(-c2ccc(F)cc2)nn2ccc(-c3cc(C(=O)NC4(c5ccccc5)CCC4)ccc3C)cc12
IC50 ([1]; Table 1): 2 to 250 nM | EC50 (HCV replicon cells; Table 1): 2 to 250 nM

CNC(=O)c1c(-c2ccc(F)cc2)nc2ccc(-c3cc(C(=O)NC(C)(C)c4ccccc4)ccc3OC)cn12
IC50 ([1]; Table 1): 2 to 250 nM | EC50 (HCV replicon cells; Table 1): 2 to 250 nM

CNC(=O)c1c(-c2ccc(F)cc2)nn2cc(N(CCO)S(C)(=O)=O)c(OC)cc12 [drawing 50]
IC50 ([1]; Table 1): 1000 to 10000 nM | EC50 (HCV replicon cells; Table 1): 1000 to 10000 nM

CNC(=O)c1c(-c2ccc(F)cc2)nn2ccc(NS(=O)(=O)c3cccc(OC)c3)cc12
IC50 ([1]; Table 1): > 10000 nM | EC50 (HCV replicon cells; Table 1): > 10000 nM

CNC(=O)c1c(-c2ccc(F)cc2)nn2cc(F)c(-c3cc(C(=O)NC4(c5ccccc5)CC4)ccc3C)cc12
IC50 ([1]; Table 1): 2 to 250 nM | EC50 (HCV replicon cells; Table 1): 2 to 250 nM

CNC(=O)c1c(-c2ccc(F)cc2)nn2ccc(-c3cc(C(=O)NC4(c5nc(C)no5)CC4)ccc3C)c(F)c12
IC50 ([1]; Table 1): 1000 to 10000 nM | EC50 (HCV replicon cells; Table 1): > 10000 nM

CNC(=O)c1c(-c2ccc(F)cc2)[nH]c2ccc(-c3cccc(C(=O)NC(C)(C)c4ccccc4)c3)cc12 [drawing 80]
IC50 ([1]; Table 1): 250 to 1000 nM | EC50 (HCV replicon cells; Table 1): 250 to 1000 nM

CNC(=O)c1c(-c2ccc(F)cc2)nn2ccc(-c3cc(C(=O)NC4(c5ccccn5)CC4)c(OC)cc3C)c(F)c12 [drawing 178]
IC50 ([1]; Table 2): 20 nM | EC50 (HCV replicon cells; Table 2): 8.39 nM

CNC(=O)c1c(-c2ccc(F)cc2)nn2ccc(-c3cccc(C(=O)NC(C)(C)C)c3)cc12
IC50 ([1]; Table 1): 250 to 1000 nM | EC50 (HCV replicon cells; Table 1): 2 to 250 nM

CNC(=O)c1c(-c2ccc(F)cc2)nn2cc(-c3ccc(OC)cc3)ccc12
IC50 ([1]; Table 1): > 10000 nM | EC50 (HCV replicon cells; Table 1): > 10000 nM

CNC(=O)c1c(-c2ccc(F)cc2)oc2ccc(-c3cc(C(=O)NC4(c5ccccn5)CC4)ccc3C)nc12
IC50 ([1]; Table 1): 2 to 250 nM | EC50 (HCV replicon cells; Table 1): 2 to 250 nM

CNC(=O)c1c(-c2ccc(F)cc2)nn2cccc(N)c12
IC50 ([1]; Table 1): > 10000 nM | EC50 (HCV replicon cells; Table 1): > 10000 nM

CNC(=O)c1c(-c2ccc(F)cc2)nn2cc(NC(=O)C(C)(C)C)c(C3CC3)cc12
IC50 ([1]; Table 1): > 10000 nM | EC50 (HCV replicon cells; Table 1): > 10000 nM

CNC(=O)c1c2cc(-c3cc(C(=O)NC(C)(C)c4ccccc4)ccc3C)ccc2nn1-c1ccc(F)cc1
IC50 ([1]; Table 1): 2 to 250 nM | EC50 (HCV replicon cells; Table 1): 2 to 250 nM

CNC(=O)c1c(-c2ccc(F)cc2)nn2c(F)cc(-c3cc(C(=O)NC4(c5ccccc5)CC4)ccc3C)cc12
IC50 ([1]; Table 1): 2 to 250 nM | EC50 (HCV replicon cells; Table 1): 2 to 250 nM

CNC(=O)c1c(-c2ccccc2)nn2cc(N3CCCCS3(=O)=O)ccc12
IC50 ([1]; Table 1): > 10000 nM | EC50 (HCV replicon cells; Table 1): > 10000 nM

CNC(=O)c1c(-c2ccc(F)cc2)nn2ccc(NC(=O)c3cccc(OC)c3)cc12
IC50 ([1]; Table 1): > 10000 nM | EC50 (HCV replicon cells; Table 1): > 10000 nM

CNC(=O)c1c(-c2ccc(F)cc2)sc2ccc(-c3cccc(C(=O)NC4(c5ccccc5)CC4)c3)cc12
IC50 ([1]; Table 1): 250 to 1000 nM | EC50 (HCV replicon cells; Table 1): 1000 to 10000 nM

CNC(=O)c1c(-c2ccc(F)cc2)nn2ccc(-c3cc(C(=O)NC4(c5ccccc5)CC4)cc(F)c3C)c(F)c12 [drawing 175]
IC50 ([1]; Table 2): 30 nM | EC50 (HCV replicon cells; Table 2): 4.32 nM

CNC(=O)c1c2cc(-c3cccc(C(=O)NC4(c5ccccn5)CC4)c3)ccc2nn1-c1ccc(F)cc1
IC50 ([1]; Table 1): 1000 to 10000 nM | EC50 (HCV replicon cells; Table 1): 1000 to 10000 nM

CNC(=O)c1c(-c2ccc(F)cc2)nn2ccc(-c3cc(C(=O)NC4(C5CC5)CC4)c(OC)cc3C)c(F)c12
IC50 ([1]; Table 1): 2 to 250 nM | EC50 (HCV replicon cells; Table 1): 2 to 250 nM

CCN(c1cn2nc(-c3ccc(F)cc3)c(C(=O)NC)c2cc1C1CC1)S(C)(=O)=O
IC50 ([1]; Table 1): 2 to 250 nM | EC50 (HCV replicon cells; Table 1): 2 to 250 nM

CNC(=O)c1c(-c2ccc(F)cc2)nn2cc(N(CCO)S(C)(=O)=O)c(C3CC3)cc12
IC50 ([1]; Table 1): 2 to 250 nM | EC50 (HCV replicon cells; Table 1): 1000 to 10000 nM
